Laboratory results taken from US20100298141A1, “SUBSTITUTED PYRIDINE N-OXIDE HERBICIDES” (E. I. DU PONT DE NEMOURS AND COMPANY, priority 2007, published 2010).

Columns and labels:
[1] = system: giant foxtail; assay: Test C pre-/postemergence test; type: in vivo, Setaria faberii; settings: for Plant response rating, Foxtail, Giant: scale 0 to 100, 0 no effect, 100 complete control
Summary of the method: (§1)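 Seeds were planted and treated preemergence with test chemical in a non-phytotoxic solvent mixture containing surfactant. Postemergence applications of the same formulation went onto plants 2 to 18 cm tall (1- to 4-leaf stage). A dash marks no test result.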

[2] = system: downy brome; assay: Test C pre-/postemergence test; type: in vivo, Bromus tectorum; settings: for Plant response rating, Bromegrass, Downy: scale 0 to 100, 0 no effect, 100 complete control
Summary of the method: as §1

[3] = system: giant foxtail; assay: Test A pre-/postemergence greenhouse test; type: in vivo, Setaria faberi; settings: for Foxtail, Giant plant response rating: 0 to 100 scale
Summary of the method: (§2)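 Each test compound, dissolved in a non-phytotoxic solvent mixture with surfactant, was sprayed directly onto seeded soil (loam/sand blend) and, at the same moment, onto seedlings carrying one to two leaves. Around ten greenhouse days later, plants were rated visually for injury relative to untreated controls.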

[4] = system: wheat; assay: Test A pre-/postemergence greenhouse test; type: in vivo, Triticum aestivum; settings: for Wheat plant response rating: 0 to 100 scale
Summary of the method: as §2

[5] = system: eastern black nightshade; assay: Test C pre-/postemergence test; type: in vivo, Solanum ptycanthum
Summary of the method: as §1

[6] = system: wild oat; assay: Test C pre-/postemergence test; type: in vivo, Avena fatua; settings: for Plant response rating, Oat, Wild: scale 0 to 100, 0 no effect, 100 complete control
Summary of the method: as §1

[7] = system: kochia; assay: Test C pre-/postemergence test; type: in vivo, Kochia scoparia; settings: for Plant response rating, Kochia: scale 0 to 100, 0 no effect, 100 complete control
Summary of the method: as §1

[8] = system: catchweed bedstraw; assay: Test C pre-/postemergence test; type: in vivo, Galium aparine
Summary of the method: as §1

[9] = system: blackgrass; assay: Test C pre-/postemergence test; type: in vivo, Alopecurus myosuroides; settings: for Plant response rating, Blackgrass: scale 0 to 100, 0 no effect, 100 complete control
Summary of the method: as §1

[10] = system: wheat; assay: Test C pre-/postemergence test; type: in vivo, Triticum aestivum; settings: for Wheat plant response rating: preemergence, scale 0 (no effect) to 100 (complete control); for Plant response rating, Wheat: scale 0 to 100, 0 no effect, 100 complete control
Summary of the method: as §1

[11] = system: redroot pigweed; assay: Test A pre-/postemergence greenhouse test; type: in vivo, Amaranthus retroflexus; settings: for Pigweed plant response rating: 0 to 100 scale
Summary of the method: as §2

[12] = system: common ragweed; assay: Test C pre-/postemergence test; type: in vivo, Ambrosia elation; settings: for Plant response rating, Ragweed: scale 0 to 100, 0 no effect, 100 complete control
Summary of the method: as §1

[13] = system: common (oilseed) sunflower; assay: Test C pre-/postemergence test; type: in vivo, Helianthus annuus; settings: for Sunflower plant response rating: preemergence, scale 0 (no effect) to 100 (complete control)
Summary of the method: as §1

[14] = system: woolly cupgrass; assay: Test C pre-/postemergence test; type: in vivo, Eriochloa villosa; settings: for Plant response rating, Cupgrass, Woolly: scale 0 to 100, 0 no effect, 100 complete control
Summary of the method: as §1

[15] = system: velvetleaf; assay: Test C pre-/postemergence test; type: in vivo, Abutilon theophrasti; settings: Postemergence; for Plant response rating, Velvetleaf: scale 0 to 100, 0 no effect, 100 complete control
Summary of the method: as §1

[16] = system: lambsquarters; assay: Test C pre-/postemergence test; type: in vivo, Chenopodium album; settings: for Plant response rating, Lambsquarters: scale 0 to 100, 0 no effect, 100 complete control
Summary of the method: as §1

[17] = system: cocklebur; assay: Test C pre-/postemergence test; type: in vivo, Xanthium strumarium; settings: for Plant response rating, Cocklebur: scale 0 to 100, 0 no effect, 100 complete control
Summary of the method: as §1

[18] = system: Surinam grass; assay: Test C pre-/postemergence test; type: in vivo, Brachiaria decumbens; settings: for Surinam Grass plant response rating: preemergence, scale 0 (no effect) to 100 (complete control); for Plant response rating, Surinam Grass: scale 0 to 100, 0 no effect, 100 complete control
Summary of the method: as §1

[19] = system: morningglory; assay: Test A pre-/postemergence greenhouse test; type: in vivo, Ipomoea spp.; settings: for Morningglory plant response rating: 0 to 100 scale
Summary of the method: as §2

[20] = 31 g ai/ha, Preemergence, scale 0 to 100
[21] = 62 g ai/ha, preemergence, scale 0 (no effect) to 100 (complete control)
[22] = preemergence, 125 g ai/ha, scale 0 (no effect) to 100 (complete control)
[23] = Postemergence, 125 g ai/ha, 0 is no effect, 100 is complete control
[24] = Postemergence, 500 g ai/ha, 0 is no effect, 100 is complete control
[25] = Preemergence, 125 g ai/ha, 0 no effect, 100 complete control
[26] = Preemergence, 500 g ai/ha, 0 to 100 scale where 0 is no effect and 100 is complete control

Cc1cc[n+]([O-])c(S(=O)(=O)Cc2c(C(F)(F)F)nn(C)c2OC(F)F)c1 [Compound 2]
Foxtail, Giant plant response rating [1, 20]: 65
Foxtail, Giant plant response rating [1, 21]: 90
Plant response rating (0 to 100), Foxtail, Giant ([1]; Postemergence, 31 g ai/ha): 0
Plant response rating, Foxtail, Giant ([1]; Postemergence, 62 g ai/ha): 0
Plant response rating, Foxtail, Giant ([1]; Postemergence, 125 g ai/ha): 0
Plant response rating, Foxtail, Giant ([1]; Postemergence, 250 g ai/ha): 50
Plant response rating (0 to 100), Foxtail, Giant ([1]; Preemergence, 250 g ai/ha): 100
Foxtail, Giant plant response rating [1, 22]: 100
Bromegrass, Downy plant response rating [2, 20]: 0
Bromegrass, Downy plant response rating [2, 21]: 40
Plant response rating (0 to 100), Bromegrass, Downy ([2]; Postemergence, 31 g ai/ha): 0
Plant response rating, Bromegrass, Downy ([2]; Postemergence, 62 g ai/ha): 0
Plant response rating, Bromegrass, Downy ([2]; Postemergence, 125 g ai/ha): 0
Plant response rating, Bromegrass, Downy ([2]; Postemergence, 250 g ai/ha): 0
Plant response rating (0 to 100), Bromegrass, Downy ([2]; Preemergence, 250 g ai/ha): 45
Bromegrass, Downy plant response rating [2, 22]: 45
Foxtail, Giant plant response rating [3, 23]: 80
Foxtail, Giant plant response rating [3, 24]: 90
Foxtail, Giant plant response rating [3, 25]: 100
Plant response rating, Foxtail, Giant [3, 26]: 100
Wheat plant response rating [4, 23]: 60
Wheat plant response rating [4, 24]: 70
Wheat plant response rating [4, 25]: 40
Plant response rating, Wheat [4, 26]: 70
Nightshade plant response rating [5, 20]: 98
Nightshade plant response rating [5, 21]: 100
Plant response rating (0 to 100), Nightshade ([5]; Preemergence, 250 g ai/ha): 100
Nightshade plant response rating [5, 22]: 100
Oat, Wild plant response rating [6, 20]: 50
Oat, Wild plant response rating [6, 21]: 65
Plant response rating (0 to 100), Oat, Wild ([6]; Postemergence, 31 g ai/ha): 0
Plant response rating, Oat, Wild ([6]; Postemergence, 62 g ai/ha): 0
Plant response rating, Oat, Wild ([6]; Postemergence, 125 g ai/ha): 0
Plant response rating, Oat, Wild ([6]; Postemergence, 250 g ai/ha): 0
Plant response rating (0 to 100), Oat, Wild ([6]; Preemergence, 250 g ai/ha): 95
Oat, Wild plant response rating [6, 22]: 70
Kochia plant response rating [7, 20]: 100
Kochia plant response rating [7, 21]: 100
Plant response rating (0 to 100), Kochia ([7]; Postemergence, 31 g ai/ha): 0
Plant response rating, Kochia ([7]; Postemergence, 62 g ai/ha): 0
Plant response rating, Kochia ([7]; Postemergence, 125 g ai/ha): 5
Plant response rating, Kochia ([7]; Postemergence, 250 g ai/ha): 5
Plant response rating (0 to 100), Kochia ([7]; Preemergence, 250 g ai/ha): 100
Kochia plant response rating [7, 22]: 100
Galium plant response rating [8, 20]: 85
Galium plant response rating [8, 21]: 95
Plant response rating (0 to 100), Galium ([8]; Preemergence, 250 g ai/ha): 100
Galium plant response rating [8, 22]: 100
Blackgrass plant response rating [9, 20]: 60
Blackgrass plant response rating [9, 21]: 80
Plant response rating (0 to 100), Blackgrass ([9]; Postemergence, 31 g ai/ha): 0
Plant response rating, Blackgrass ([9]; Postemergence, 62 g ai/ha): 0
Plant response rating, Blackgrass ([9]; Postemergence, 125 g ai/ha): 0
Plant response rating, Blackgrass ([9]; Postemergence, 250 g ai/ha): 0
Plant response rating (0 to 100), Blackgrass ([9]; Preemergence, 250 g ai/ha): 100
Blackgrass plant response rating [9, 22]: 80
Wheat plant response rating ([10]; 62 g ai/ha): 0
Plant response rating (0 to 100), Wheat ([10]; Postemergence, 31 g ai/ha): 0
Plant response rating (0 to 100), Wheat ([10]; Postemergence, 62 g ai/ha): 0
Plant response rating, Wheat ([10]; Postemergence, 125 g ai/ha): 0
Plant response rating, Wheat ([10]; Postemergence, 250 g ai/ha): 0
Plant response rating (0 to 100), Wheat ([10]; Preemergence, 250 g ai/ha): 98
Wheat plant response rating ([10]; 125 g ai/ha): 70
Pigweed plant response rating [11, 23]: 100
Pigweed plant response rating [11, 24]: 100
Pigweed plant response rating [11, 25]: 100
Plant response rating, Pigweed [11, 26]: 100
Ragweed plant response rating [12, 20]: 20
Ragweed plant response rating [12, 21]: 98
Plant response rating (0 to 100), Ragweed ([12]; Postemergence, 31 g ai/ha): 0
Plant response rating (0 to 100), Ragweed ([12]; Postemergence, 62 g ai/ha): 0
Plant response rating, Ragweed ([12]; Postemergence, 125 g ai/ha): 5
Plant response rating, Ragweed ([12]; Postemergence, 250 g ai/ha): 10
Plant response rating (0 to 100), Ragweed ([12]; Preemergence, 250 g ai/ha): 100
Ragweed plant response rating [12, 22]: 100
Sunflower plant response rating ([13]; 62 g ai/ha): 5
Plant response rating (0 to 100), Sunflower ([13]; Preemergence, 250 g ai/ha): 100
Sunflower plant response rating ([13]; 125 g ai/ha): 80
Cupgrass, Woolly plant response rating [14, 20]: 65
Cupgrass, Woolly plant response rating [14, 21]: 90
Plant response rating (0 to 100), Cupgrass, Woolly ([14]; Postemergence, 31 g ai/ha): 0
Plant response rating, Cupgrass, Woolly ([14]; Postemergence, 62 g ai/ha): 30
Plant response rating, Cupgrass, Woolly ([14]; Postemergence, 125 g ai/ha): 50
Plant response rating, Cupgrass, Woolly ([14]; Postemergence, 250 g ai/ha): 50
Plant response rating (0 to 100), Cupgrass, Woolly ([14]; Preemergence, 250 g ai/ha): 100
Cupgrass, Woolly plant response rating [14, 22]: 100
Plant response rating (0 to 100), Velvetleaf ([15]; 31 g ai/ha): 0
Plant response rating (0 to 100), Velvetleaf ([15]; 62 g ai/ha): 0
Plant response rating, Velvetleaf ([15]; 125 g ai/ha): 0
Plant response rating, Velvetleaf ([15]; 250 g ai/ha): 5
Lambsquarters plant response rating [16, 20]: 0
Lambsquarters plant response rating [16, 21]: 70
Plant response rating (0 to 100), Lambsquarters ([16]; Postemergence, 31 g ai/ha): 0
Plant response rating, Lambsquarters ([16]; Postemergence, 62 g ai/ha): 0
Plant response rating, Lambsquarters ([16]; Postemergence, 125 g ai/ha): 0
Plant response rating, Lambsquarters ([16]; Postemergence, 250 g ai/ha): 0
Plant response rating (0 to 100), Lambsquarters ([16]; Preemergence, 250 g ai/ha): 100
Lambsquarters plant response rating [16, 22]: 100
Cocklebur plant response rating [17, 20]: 0
Cocklebur plant response rating [17, 21]: 0
Plant response rating (0 to 100), Cocklebur ([17]; Postemergence, 31 g ai/ha): 0
Plant response rating, Cocklebur ([17]; Postemergence, 62 g ai/ha): 0
Plant response rating, Cocklebur ([17]; Postemergence, 125 g ai/ha): 0
Plant response rating, Cocklebur ([17]; Postemergence, 250 g ai/ha): 10
Plant response rating (0 to 100), Cocklebur ([17]; Preemergence, 250 g ai/ha): 100
Cocklebur plant response rating [17, 22]: 70
Surinam Grass plant response rating ([18]; 62 g ai/ha): 100
Plant response rating (0 to 100), Surinam Grass ([18]; Postemergence, 31 g ai/ha): 0
Plant response rating (0 to 100), Surinam Grass ([18]; Postemergence, 62 g ai/ha): 0
Plant response rating, Surinam Grass ([18]; Postemergence, 125 g ai/ha): 0
Plant response rating, Surinam Grass ([18]; Postemergence, 250 g ai/ha): 0
Plant response rating (0 to 100), Surinam Grass ([18]; Preemergence, 250 g ai/ha): 100
Surinam Grass plant response rating ([18]; 125 g ai/ha): 100
Morningglory plant response rating [19, 23]: 60
Morningglory plant response rating [19, 24]: 100
Morningglory plant response rating [19, 25]: 80
Plant response rating, Morningglory [19, 26]: 90
